Data as given in patent publication US20140154269A1, “TARGETED NANOVECTORS AND THEIR USE FOR TREATMENT OF BRAIN TUMORS” (The Methodist Hospital Research Institute, priority 2011, published 2014).

Experiments:
[1] = cited from earlier work
[2] = test system: primary GBM cell cultures; assay: Cell viability measurements (ddTUNEL, Dead Green, Hoechst staining) in primary GBM cultures; details: 24 h; PEG-HCCs 2.6 nM, GFAPAB 3.9 nM, SN-38 2 μM
Description: Total, viable, and dead glioma cell numbers in confluent primary GBM cell cultures were measured using ddTUNEL (a quantitative assay for 3′ OH DNA ends), Dead Green, and Hoechst stains. Cells were treated with GFAPAB/SN-38/PEG-HCCs or saline for 24 h.
Primary human glioblastoma or astrocytoma cells were prepared from tumors within 10 min of their excision. The tumors were broken up using a pipette and then grown in DMEM, 20% FBS, GlutaMax-I, sodium pyruvate and Pen/Strep, for 2 weeks. After this time, and in all presented data, the same media was used, except that sodium pyruvate was omitted. […] GBM and NHA were grown to confluency in the appropriate media on Costar 96-well growth plates (Corning, N.Y.C, NY, USA). […] Cells were grown for 24 h in the presence or absence of all effectors, in a total volume of 250 μL.
The biotinylated ddUTP and biotinylated blunt ended oligonucleotide probe was visualized using Texas Red labeled avidin. […]
Cells were counted at 4× magnification using a Nikon Eclipse TE2000-E fluorescent microscope equipped with a CoolSnap ES digital camera system (Roper Scientific) containing an CCD-1300-Y/HS 1392×1040 imaging array cooled by a Peltier device. Images were recorded using Nikon NIS-Elements software as JEP2000 files.

[3] = test system: immortalized human glioblastoma cell cultures; details: cited from earlier work

Which “Log P” value [1] does the source give for `CC[C@]1(O)C[C@@H]2CN(CCc3c([nH]c4ccccc34)[C@@](C(=O)OC)(c3cc4c(cc3OC)N(C)[C@H]3[C@@](O)(C(=O)OC)[C@H](OC(C)=O)[C@]5(CC)C=CCN6CC[C@]43[C@@H]65)C2)C1` [Vin, Vinblastine] here?
Its value is 4.8.

For `CCc1c2c(nc3ccc(O)cc13)-c1cc3c(c(=O)n1C2)COC(=O)[C@]3(O)CC` [SN-38], which “toxicity towards GBM cells (average living cells from ddTUNEL, Dead Green, Hoechst)” value [2] is on record?
Its value is “not toxic”.

What about the “Log P” value [1] of the same compound?
Its value is 1.87.

What about the “LD50 range reported by others” value [3] of the same compound?
Its value is 5 to 10 µM.
